{"source": "ChEMBL document CHEMBL1155049", "about": "“Synthesis and cytotoxic activity of benzopyran-based platinum(II) complexes” (Bioorg Med Chem Lett, 2008)", "type_in_all_cases": "functional, cell-based", "key": {"MCF7": {"system": "MCF7", "assay": "Cytotoxicity against human MCF7 cells expressing estrogen receptor after 72 hrs by MTT assay", "details": "MCF7, 72 h"}, "MDA-MB-231": {"system": "MDA-MB-231", "assay": "Cytotoxicity against estrogen receptor deficient human MDA-MB-231 cells after 72 hrs by MTT assay", "details": "MDA-MB-231, 72 h"}, "[1]": {"assay": "Cytotoxicity against estrogen receptor deficient human MDA-MB-436 cells after 72 hrs by MTT assay", "details": "MDA-MB-436, 72 h"}, "MDA-MB-468": {"system": "MDA-MB-468", "assay": "Cytotoxicity against estrogen receptor deficient human MDA-MB-468 cells after 72 hrs by MTT assay", "details": "MDA-MB-468, 72 h"}}, "data": [{"molecule": "COc1ccc2c(c1)OC(C)(C)[C@@H](c1ccccc1)[C@@H]2c1ccc(OCCCCCCNCCCc2ccccn2)cc1", "values": [{"measurement": "IC50", "setting": "MCF7", "result": 15.6, "unit": "µM"}, {"measurement": "IC50", "setting": "MDA-MB-231", "result": 18.7, "unit": "µM"}, {"measurement": "IC50", "setting": "[1]", "result": 15.7, "unit": "µM"}, {"measurement": "IC50", "setting": "MDA-MB-468", "result": 7.61, "unit": "µM"}]}]}
